Results on two compounds are retold here after ChEMBL document CHEMBL3525928 (Drug Metab Dispos, 2011).

The test system of data set [1] is Hepatocyte. Description: Drug uptake in sandwich-cultured human hepatocytes lot Hu4165 at 0.05 uM at 37 degC for 5 mins by scintillation spectroscopy in presence of 100 uM BSP A OATP and […] inhibitor (reference value: 100 +/- 3.1 to 100 +/- 7.0%). The class given is ADME, cell-based. The arrangement: interact cpd dose 100 uM.
In data set [2] the test system is Hepatocyte. The data set can be described thus: Drug uptake in sandwich-cultured human hepatocytes lot Hu4165 at 0.05 uM at 37 degC for 5 mins by scintillation spectroscopy in presence of 50 uM FCCP mitochondrial uncouplers (reference value: 100 +/- 3.1 to 100 +/- 7.0%). Type of data set: ADME, cell-based. The arrangement: interact cpd dose 50 uM.
The test system of data set [3] is Hepatocyte. The data set can be described thus: Drug uptake in sandwich-cultured human hepatocytes lot Hu4165 at 0.05 uM at 37 degC for 5 mins by scintillation spectroscopy in presence of 100 uM rifampicin OATP substrate/inhibitor (reference value: 100 +/- 3.1 to 100 +/- 7.0%). The class given is ADME, cell-based. The arrangement: interact cpd dose 100 uM.
The test system of data set [4] is Hepatocyte. The data set can be described thus: Drug uptake in sandwich-cultured human hepatocytes lot Hu4165 at 0.05 uM at 37 degC for 5 mins by scintillation spectroscopy in presence of 100 uM digoxin cardiac glycosides (reference value: 100 +/- 3.1 to 100 +/- 7.0%). The class given is ADME, cell-based.
Data set [5] deals with Hepatocyte. Description: Drug uptake in sandwich-cultured human hepatocytes lot Hu4165 at 0.05 uM at 37 degC for 5 mins by scintillation spectroscopy in presence of 500 uM digoxin (1% DMSO) cardiac glycosides (reference value: 100 +/- 3.1 to 100 +/- 7.0%). The class given is ADME, cell-based.
The subject of data set [6] is Hepatocyte. Description: Uptake clearance in sandwich-cultured human hepatocytes lot Hu4165 […] measured per mg of protein at 0.05 to 1 uM at 37 degC after 0.5 to 2 mins by scintillation spectroscopy in presence of 100 uM rifamycin SV. The class given is ADME, cell-based.
For data set [7], the system named is Hepatocyte. The data set can be described thus: Uptake clearance in sandwich-cultured human hepatocytes lot Hu4165 […] measured per mg of protein at 0.05 to 1 uM at 37 degC on day 5 by scintillation spectroscopy. Type of data set: ADME, cell-based.
A short description of data set [8]: Drug excretion in urine (unknown origin). Type of data set: ADME, tissue-based. To be noted: human, read-out: Drug excretion.
A short description of data set [9]: Drug excretion in bile (unknown origin). The note with it: human, read-out: Drug excretion. The class given is ADME, tissue-based.
Data set [10] is described as follows: Drug uptake in rat hepatocytes. Type of data set: ADME, cell-based, Hepatocyte.
Data set [11] is described as follows: Drug uptake in sandwich-cultured human hepatocytes at 0.05 to 10 uM at 37 degC by Michaelis-Menten kinetics/scintillation spectroscopy. Type of data set: ADME, cell-based, Hepatocyte.
The test system of data set [12] is Hepatocyte. The data set can be described thus: Drug uptake in sandwich-cultured human hepatocytes measured per mg of protein at 0.05 to 10 uM at 37 degC by Michaelis-Menten kinetics/scintillation spectroscopy. The class given is ADME, cell-based.
Data set [13] relates to Hepatocyte. Description: Uptake clearance in sandwich-cultured human hepatocytes measured per mg of protein at 0.05 to 10 uM at 37 degC by scintillation spectroscopy. The class given is ADME, cell-based.
Data set [14] deals with Hepatocyte. Description: Drug uptake in sandwich-cultured human hepatocytes at 0.05 uM at 37 degC by scintillation spectroscopy. Type of data set: ADME, cell-based.
Data set [15] deals with Hepatocyte. The data set can be described thus: Drug uptake in sandwich-cultured human hepatocytes measured per mg of protein at 0.05 uM at 37 degC after 5 mins by scintillation spectroscopy. Type of data set: ADME, cell-based.
For data set [16], the system named is Hepatocyte. The data set can be described thus: Drug uptake in sandwich-cultured human hepatocytes measured per mg of protein at 0.05 uM at 4 degC after 5 mins by scintillation spectroscopy. The class given is ADME, cell-based.
In data set [17] the test system is Hepatocyte. The note with it: human, hepatocytes, 5 min, 0.05 µM.
In data set [18] the test system is Hepatocyte. The note with it: human, hepatocytes, 1 µM.
Data set [19] has as its system Hepatocyte. To be noted: human, hepatocytes, 1 µM. The source holds these as a separate data set.
Data set [20] deals with Hepatocyte. The note with it: human, hepatocytes, 5 min, 0.05 µM. The source holds these as a separate data set.
In data set [21] the test system is Hepatocyte. To be noted: human, hepatocytes, 5 min, 0.05 µM. The source holds these as a separate data set.
For data set [22], the system named is Hepatocyte. The note with it: human, hepatocytes, 5 min, 0.05 µM. This is another data set of the same source.
The subject of data set [23] is Hepatocyte. To be noted: human, hepatocytes, 5 min, 0.05 µM. The source holds these as a separate data set.
Data set [24] deals with Hepatocyte. The note with it: human, hepatocytes, 5 min, 0.05 µM. The source holds these as a separate data set.
In data set [25] the test system is Hepatocyte. The note with it: human, hepatocytes, 5 min, 0.05 µM. The source holds these as a separate data set.
Data set [26] concerns Hepatocyte. The note with it: human, hepatocytes, 5 min, 0.05 µM. The source holds these as a separate data set.
Data set [27] relates to Hepatocyte. To be noted: human, hepatocytes, 5 min, 0.05 µM. This is another data set of the same source.
Data set [28] concerns Hepatocyte. The note with it: human, hepatocytes, 5 min, 0.05 µM. This is another data set of the same source.
Data set [29] relates to Hepatocyte. The note with it: human, hepatocytes, 5 min, 0.05 µM. The source holds these as a separate data set.
Data set [30] has as its system Hepatocyte. To be noted: human, hepatocytes, 5 min, 0.05 µM. The source holds these as a separate data set.
The subject of data set [31] is Hepatocyte. To be noted: human, hepatocytes, 5 min, 0.05 µM. The source holds these as a separate data set.
Data set [32] deals with Hepatocyte. To be noted: human, hepatocytes, 5 min, 0.05 µM. The source holds these as a separate data set.
In data set [33] the target is T1, OATP1B3 (Homo sapiens, UniProt Q9NPD5).
T1 sequence (Q9NPD5 whole entry): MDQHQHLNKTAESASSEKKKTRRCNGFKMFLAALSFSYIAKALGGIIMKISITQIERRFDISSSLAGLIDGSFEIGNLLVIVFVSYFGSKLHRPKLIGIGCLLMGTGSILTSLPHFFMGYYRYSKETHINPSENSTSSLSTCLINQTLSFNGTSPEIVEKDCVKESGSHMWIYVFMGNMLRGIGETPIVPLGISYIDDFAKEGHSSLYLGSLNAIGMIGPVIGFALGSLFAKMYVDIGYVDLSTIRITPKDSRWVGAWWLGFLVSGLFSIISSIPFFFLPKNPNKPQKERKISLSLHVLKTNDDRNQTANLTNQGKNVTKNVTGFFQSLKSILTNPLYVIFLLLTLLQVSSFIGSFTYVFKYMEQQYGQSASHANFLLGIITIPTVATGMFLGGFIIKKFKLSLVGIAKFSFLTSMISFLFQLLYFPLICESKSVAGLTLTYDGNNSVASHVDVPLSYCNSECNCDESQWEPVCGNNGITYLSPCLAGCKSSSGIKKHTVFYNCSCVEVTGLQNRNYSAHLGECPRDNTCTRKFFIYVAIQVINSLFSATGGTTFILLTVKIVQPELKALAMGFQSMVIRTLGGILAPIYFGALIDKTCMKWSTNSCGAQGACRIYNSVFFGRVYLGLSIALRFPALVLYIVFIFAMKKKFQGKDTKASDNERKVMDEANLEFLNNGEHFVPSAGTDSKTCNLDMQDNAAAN
The data set can be described thus: Drug uptake ratio assessed as enzyme-mediated uptake in HEK293 cells expressing human OATP1B3 at 1 uM at 37 degC for 3 mins by liquid scintillation spectroscopy relative to wild type. Type of data set: ADME, cell-based.

For data set [34], the target named is T1, OATP1B3. Description: Drug uptake ratio assessed as enzyme-mediated uptake in HEK293 cells expressing human OATP1B3 at 10 uM at 37 degC for 3 mins by liquid scintillation spectroscopy relative to wild type. Type of data set: ADME, cell-based.
For data set [35], the target named is T1, OATP1B3. The data set can be described thus: Drug uptake ratio assessed as enzyme-mediated uptake in HEK293 cells expressing human OATP1B3 at 1 uM at 37 degC for 3 mins cells pretreated with sodium butyrate by liquid scintillation spectroscopy relative to wild type. Type of data set: ADME, cell-based.
The target in data set [36] is T1, OATP1B3. The data set can be described thus: Drug uptake ratio assessed as enzyme-mediated uptake in HEK293 cells expressing human OATP1B3 at 10 uM at 37 degC for 3 mins cells pretreated with sodium butyrate by liquid scintillation spectroscopy relative to wild type. The class given is ADME, cell-based.

Molecules are shown by their SMILES.

For orientation: Km means the concentration of substrate that gives half-maximal velocity. As a reminder, the Vmax is the rate approached at saturating substrate. Take `C[C@H]1O[C@@H](O[C@H]2[C@@H](O)C[C@H](O[C@H]3[C@@H](O)C[C@H](O[C@H]4CC[C@@]5(C)[C@H](CC[C@@H]6[C@@H]5C[C@@H](O)[C@]5(C)[C@@H](C7=CC(=O)OC7)CC[C@]65O)C4)O[C@@H]3C)O[C@@H]2C)C[C@H](O)[C@@H]1O` [DIGOXIN]: the Drug uptake in the data set on Hepatocyte [1] is 113%; with Hepatocyte [2], 63.8%; in the data set with Hepatocyte [3] it was 120%; in the data set with Hepatocyte [4], 48.9%; with Hepatocyte [5] it was 55.5%; in the data set with Hepatocyte [14], “Active”. Moreover, the Drug uptake was 153 fmol/min in the data set on Hepatocyte [15]; 1.33 fmol/min with Hepatocyte [16]; 63.1% with Hepatocyte [17]; 115% with Hepatocyte [20]; 89.9% with Hepatocyte [21]; 110% in the data set with Hepatocyte [22]. Moreover, the Drug uptake is 79.2% in the data set on Hepatocyte [23]; 87.4% in the data set on Hepatocyte [24]; 114% in the data set with Hepatocyte [25]; 55.4% with Hepatocyte [26]; 50.5% in the data set on Hepatocyte [27]; 67.5% in the data set on Hepatocyte [28]. Besides, the Drug uptake with Hepatocyte [29] is listed as 45%; in the data set on Hepatocyte [30] it was 158%; in the data set with Hepatocyte [31], 163%; in the data set with Hepatocyte [32] it was 90.5%. For the same compound, the CLup with Hepatocyte [6] is 4.53 µL/min/g; in the data set on Hepatocyte [7], 3.6 µL/min/g; with Hepatocyte [13] it was 1.88 µL/min/g; in the data set with Hepatocyte [18], 4.06 µL/min/g; in the data set with Hepatocyte [19] it was 1.88 µL/min/g. In addition, the dose excreted in [8] was 50%; in [9], 30%. In addition, the Km in data set [10] was found to be 0.18 µM. Besides, in [11], the Km at up to 10 µM came out at 2.39 µM. In the data set with Hepatocyte [12], the Vmax was 4.49 pmol/min.

For `C[C@]12CC[C@@H]3c4ccc(O)cc4CC[C@H]3[C@@H]1CC[C@@H]2O[C@@H]1O[C@H](C(=O)O)[C@@H](O)[C@H](O)[C@H]1O` [ESTRADIOL 17B GLUCURONIDE], the uptake ratio at 0.05 h, 1 µM amounted to 87 on OATP1B3 [33] and 74 on OATP1B3 [35]. The uptake ratio at 0.05 h, 10 µM at OATP1B3 [34] stood at 116; at OATP1B3 [36] it was 78.
